Test system: polysorbate degrading activity
Test: Reduction of polysorbate degrading activity by lipase inhibitors
Assay type: biochemical, CHO
[1] = 0.001 mM lipase inhibitor, relative to control without inhibitor

| Compound | Percent reduction in polysorbate 20 degradation [1] [%] | Percent reduction in polysorbate 20 degradation (0.01 mM lipase inhibitor) | Percent reduction in polysorbate 20 degradation (0.1 mM lipase inhibitor) [%] |
| --- | --- | --- | --- |
| O=C(Nc1cccc(-c2ccccc2)c1)OC1CCCCC1 [URB602, [1-1′-biphenyl]-3-t1-carbamicacid cyclohexyl ester] | 0 | 20% | 0 |
| CCCCOc1ccccc1B(O)O [2-Butoxyphenyl boronic acid, 2-butoxyphenylboronic acid] | 0 | 28% | 0 |
| CCCCCCCCCCC[C@@H](C[C@@H]1OC(=O)[C@H]1CCCCCC)OC(=O)[C@H](CC(C)C)NC=O [Orlistat, orlistat] | 0 | 27.8%^ | 67 |
| diethylumbelliferyl phosphate | 48 | 100% | >95 |

Source: patent US20240199688A1, “METHODS FOR REDUCING LIPASE ACTIVITY” (Regeneron Pharmaceuticals, Inc., priority 2022, published 2024)
